In patent US20080287299A1, “Use of Imidazole and/or Triazole Derivatives for Combating Plant Pests; as Well as Method for Controlling Diseases/Insects/Mites/Nematodes and Weeds, Particularly Foliar and/or Soil Diseases” (priority 2005, published 2008):

Key:
Phakopsora pachyrhizi [1] = test: Field evaluation of fungicides for control of soybean asian rust, Rondonópolis, MT, Brazil; type: in vivo
Protocol: Results of the 2nd step with defined crops (Evaluation of efficiency of fungicides for controlling soybean asian rust caused by Phakopsora pachyrhizi in the State of Mato Grosso, Brazil)
Several fungicides were evaluated in the control of soybean asian rust (Table 1A). The experiment was effected in Rondonópolis, MT, Brazil, harvest 2005/06, in a commercial area with soybean cultivar. The experiment consisted of 13 treatments (Table 1A).
The experimental outlining was random, in blocks, with 13 treatments and 4 repetitions. Each plot consisted of 6 lines of 6 m, spaced 0.45 m.
The culture traits were suited to the good development of the soybean crop, uniformly applied in the whole experiment.
The spraying was effected in stadiums R3 and R5.1, with coast CO2 sprayer provided with a JA-02-type beak, under a pressure of 0.31 MPa (45 psi), using 110 L of broth per ha. At the first application, the plants were presenting the beginning of rust symptoms at their foliar areas.
The rust was evaluated by analysing the percentage of foliar area affected by the disease, according to Godoy et al., in the plants of the three central lines. Evaluationa related to soybean injury and severity were effected in 14 and 21 days after the first application (DDA), by means of visual observation of the leaves of the plot plants.

Phakopsora pachyrhizi [2] = test: Greenhouse soybean rust test, plants at V6 stage, evaluated every 5 days; type: in vivo
Text: Recent tests carried out in greenhouses the laboratory of FMC Quimica do Brasil Ltda. in Uberaba, MG, Brazil, show the highly fungicidal effect of said specific imidazole and/or triazole derivatives in combating diseases of plants, particularly against the attack by the fungus Phakopsora pachyrhizi on soybeans, as described hereinafter. […]
Equipment: a manual sprayer commonly used in agriculture with 2-liter capacity.
Dosages: 50 to 500 grams per hectare of the active compound Fluconazole per liter diluted in water.
Evaluations of the Effectiveness of the Product: The evaluations were made every 5 days after application of the product, in a total of 4 evaluations. As an evaluation parameter one utilized the severity of the disease (percentage of foliar area attacked by rust) according to the diagrammatic scale of the EMBRAPA (FIG. 1). […]
Dosages: 50 to 500 grams per hectare of the active compound Itraconazole per liter diluted in water.

[3] = Dose 1000 P.C. mL ha^−1, 14 days after the first application
[4] = Dose 1000 P.C. mL ha^−1, 21 days after the first application

`CC(=O)N1CCN(c2ccc(OC[C@H]3CO[C@](Cn4ccnc4)(c4ccc(Cl)cc4Cl)O3)cc2)CC1` (relative stereo) [Ketoconazole, cis-1-acetyl-4-(4-((2-(2,4-dichloro-phenyl)-2-(1H-imidazol-1-ylmethyl)-1,3-dioxolan-4-yl)methoxyl)phenyl)piperazine] was tested, and the “Severity - affected foliar area (%) 14 DAA” value (“Severity … (%) 14 DAA” for short) (Phakopsora pachyrhizi [1]; [3]) was 2.0%, the “Severity - affected foliar area (%) 21 DAA” value (from here on “Severity … (%) 21 DAA”) (Phakopsora pachyrhizi [1]; [4]) was 7.0% and the “SEVERITY OF RUST (% IFA) 5 DAT” value (Phakopsora pachyrhizi [2]; 100 g ac/ha, soybeans) was 27 % IFA. The “SEVERITY OF RUST (% IFA) 10 DAT” value (Phakopsora pachyrhizi [2]; 100 g ac/ha, soybeans) was 20 % IFA, the “SEVERITY OF RUST (% IFA) 20 DAT” value (Phakopsora pachyrhizi [2]; 100 g ac/ha, soybeans) was 45 % IFA and the “SEVERITY OF RUST (% IFA) 5 DAT” value (Phakopsora pachyrhizi [2]; 200 g ac/ha, soybeans) was 10 % IFA. The “SEVERITY OF RUST (% IFA) 10 DAT” value (Phakopsora pachyrhizi [2]; 200 g ac/ha, soybeans) was 8 % IFA, the “SEVERITY OF RUST (% IFA) 20 DAT” value (Phakopsora pachyrhizi [2]; 200 g ac/ha, soybeans) was 18 % IFA and the “SEVERITY OF RUST (% IFA) 5 DAT” value (Phakopsora pachyrhizi [2]; 300 g ac/ha, soybeans) was 10 % IFA. The “SEVERITY OF RUST (% IFA) 10 DAT” value (Phakopsora pachyrhizi [2]; 300 g ac/ha, soybeans) was 6 % IFA, the “SEVERITY OF RUST (% IFA) 20 DAT” value (Phakopsora pachyrhizi [2]; 300 g ac/ha, soybeans) was 16 % IFA and the “SEVERITY OF RUST (% IFA) 5 DAT” value (Phakopsora pachyrhizi [2]; 400 g ac/ha, soybeans) was 11 % IFA. For the same molecule, the “SEVERITY OF RUST (% IFA) 10 DAT” value (Phakopsora pachyrhizi [2]; 400 g ac/ha, soybeans) was 7 % IFA, the “SEVERITY OF RUST (% IFA) 20 DAT” value (Phakopsora pachyrhizi [2]; 400 g ac/ha, soybeans) was 15 % IFA and the “SEVERITY OF RUST (% IFA) 5 DAT” value (Phakopsora pachyrhizi [2]; 500 g ac/ha, soybeans) was 8 % IFA. The “SEVERITY OF RUST (% IFA) 10 DAT” value (Phakopsora pachyrhizi [2]; 500 g ac/ha, soybeans) was 4 % IFA, the “SEVERITY OF RUST (% IFA) 20 DAT” value (Phakopsora pachyrhizi [2]; 500 g ac/ha, soybeans) was 11 % IFA and the “effectiveness for controlling soybean rust” value (Phakopsora pachyrhizi [2]; from the dose of 200 grams of active ingredients per hectare) was “imparts effectiveness for controlling soybean rust”.

For `OC(Cn1cncn1)(Cn1cncn1)c1ccc(F)cc1F` [Fluconazole, alpha-(2,4-difluorophenyl)-alpha-(1H-1,2,4-trizole-1-ylmethyl)-1H-1,2,4-trizole-1-ethanol], the “Severity … (%) 14 DAA” value (Phakopsora pachyrhizi [1]; Dose 500 P.C. mL ha^−1, 14 days after the first application) was 0.6%, the “Severity … (%) 21 DAA” value (Phakopsora pachyrhizi [1]; Dose 500 P.C. mL ha^−1, 21 days after the first application) was 4.0% and the “Severity … (%) 14 DAA” value (Phakopsora pachyrhizi [1]; Dose 750 P.C. mL ha^−1, 14 days after the first application) was 0.5%. The “Severity … (%) 21 DAA” value (Phakopsora pachyrhizi [1]; Dose 750 P.C. mL ha^−1, 21 days after the first application) was 2.0%, the “Severity … (%) 14 DAA” value (Phakopsora pachyrhizi [1]; [3]) was 0.4% and the “Severity … (%) 21 DAA” value (Phakopsora pachyrhizi [1]; [4]) was 1.5%. The “SEVERITY OF RUST (% IFA) 5 DAT” value (Phakopsora pachyrhizi [2]; Table 2: 50 g ac/ha, soybean) was 5 % IFA, the “SEVERITY OF RUST (% IFA) 10 DAT” value (Phakopsora pachyrhizi [2]; Table 2: 50 g ac/ha, soybean) was 10 % IFA and the “SEVERITY OF RUST (% IFA) 15 DAT” value (Phakopsora pachyrhizi [2]; Table 2: 50 g ac/ha, soybean) was 12 % IFA. For the same molecule, the “SEVERITY OF RUST (% IFA) 20 DAT” value (Phakopsora pachyrhizi [2]; Table 2: 50 g ac/ha, soybean) was 12 % IFA, the “SEVERITY OF RUST (% IFA) 5 DAT” value (Phakopsora pachyrhizi [2]; Table 2: 100 g ac/ha, soybean) was 5 % IFA and the “SEVERITY OF RUST (% IFA) 10 DAT” value (Phakopsora pachyrhizi [2]; Table 2: 100 g ac/ha, soybean) was 7 % IFA. The “SEVERITY OF RUST (% IFA) 15 DAT” value (Phakopsora pachyrhizi [2]; Table 2: 100 g ac/ha, soybean) was 10 % IFA, the “SEVERITY OF RUST (% IFA) 20 DAT” value (Phakopsora pachyrhizi [2]; Table 2: 100 g ac/ha, soybean) was 11 % IFA and the “SEVERITY OF RUST (% IFA) 5 DAT” value (Phakopsora pachyrhizi [2]; Table 2: 150 g ac/ha, soybean) was 4 % IFA. The “SEVERITY OF RUST (% IFA) 10 DAT” value (Phakopsora pachyrhizi [2]; Table 2: 150 g ac/ha, soybean) was 6 % IFA, the “SEVERITY OF RUST (% IFA) 15 DAT” value (Phakopsora pachyrhizi [2]; Table 2: 150 g ac/ha, soybean) was 9 % IFA and the “SEVERITY OF RUST (% IFA) 20 DAT” value (Phakopsora pachyrhizi [2]; Table 2: 150 g ac/ha, soybean) was 10 % IFA. For the same molecule, the “SEVERITY OF RUST (% IFA) 5 DAT” value (Phakopsora pachyrhizi [2]; Table 2: 250 g ac/ha, soybean) was 3 % IFA, the “SEVERITY OF RUST (% IFA) 10 DAT” value (Phakopsora pachyrhizi [2]; Table 2: 250 g ac/ha, soybean) was 7 % IFA and the “SEVERITY OF RUST (% IFA) 15 DAT” value (Phakopsora pachyrhizi [2]; Table 2: 250 g ac/ha, soybean) was 11 % IFA. For the same molecule, the “SEVERITY OF RUST (% IFA) 20 DAT” value (Phakopsora pachyrhizi [2]; Table 2: 250 g ac/ha, soybean) was 10 % IFA, the “SEVERITY OF RUST (% IFA) 5 DAT” value (Phakopsora pachyrhizi [2]; Table 2: 500 g ac/ha, soybean) was 0 % IFA and the “SEVERITY OF RUST (% IFA) 10 DAT” value (Phakopsora pachyrhizi [2]; Table 2: 500 g ac/ha, soybean) was 0 % IFA. For the same molecule, the “SEVERITY OF RUST (% IFA) 15 DAT” value (Phakopsora pachyrhizi [2]; Table 2: 500 g ac/ha, soybean) was 2 % IFA, the “SEVERITY OF RUST (% IFA) 20 DAT” value (Phakopsora pachyrhizi [2]; Table 2: 500 g ac/ha, soybean) was 4 % IFA and the “effective in controlling soybean rust” value (Phakopsora pachyrhizi [2]; from 50 grams of active ingredient per hectare) was “effective in controlling soybean rust”.
